Reference: PMC8913810, “New insights into the resistance mechanism for the BceAB-type transporter SaNsrFP” (Scientific Reports, 2022)
Where two headings read alike, the source gives them in different places. Bridge positions count the residues as written; N and C are the ends. Square brackets hold non-standard residues; d marks the D form. Peptide text beside a SMILES is read from it. * marks the point of attachment. Ileψ(thiazoline)Cys = CC[C@H](C)[C@H](N)C1=N[C@H](C(=O)*)CS1; dOrn = NCCC[C@@H](N)C(=O)O

How the values were obtained:
[1] = test system: L. lactis NZ9000Cm; conditions: read-out: IC50 (nM) L. lactis NZ9000Cm; GM17, 5 µg/ml chloramphenicol, 0.3 nM nisin, 30 °C, 5 h, optical density; at least 3 biological replicates with 3 technical replicates each
Method: (§1) After adding the different antibiotics to the cultures of the strains L. lactis wild type (WT), L. lactis NZ9000Cm, L. lactis NZ9000SaNsrFP and L. lactis SaNsrFH202AP, the IC50 was determined.
(§2) The half maximal inhibitory concentration was determined according to Abts et al.[71]. Briefly, L. lactis NZ9000Cm, L. lactis NZ9000SaNsrFP and L. lactis NZ9000SaNsrFH202AP cells were grown in GM17 medium containing 5 µg/ml chloramphenicol and 0.3 nM nisin at 30 °C overnight. Fresh GM17Cm medium with a sublethal amount of nisin (0.3 nM) was inoculated with overnight cultures to an OD600 of 0.1. A 96-well plate was prepared with a serial dilution of examined antibiotics (concentration ranges ramoplanin 0.014 nM–3.75 µM; lysobactin 0.002 nM–10 µM; vancomycin 0.02 nM–80 µM; nisin 0.0001 nM–0.5 µM) and subsequently the cell culture was added and plates were incubated at 30 °C for 5 h. Afterwards, the optical density was measured, and the IC50 values for each strain and antibiotic were calculated.

[2] = test system: L. lactis NZ9000NsrFH202AP; conditions: for Fold of resistance L. lactis NZ9000NsrFH202AP: IC50 of NZ9000NsrFH202AP divided by IC50 of NZ9000Cm; for IC50: read-out: IC50 (nM) L. lactis NZ9000NsrFH202AP, GM17, 5 µg/ml chloramphenicol, 0.3 nM nisin, 30 °C, 5 h, optical density, at least 3 biological replicates with 3 technical replicates each
Method: as §1, §2

[3] = test system: L. lactis NZ9000NsrFP; conditions: for Fold of resistance L. lactis NZ9000NsrFP: IC50 of NZ9000NsrFP divided by IC50 of NZ9000Cm; for IC50: read-out: IC50 (nM) L. lactis NZ9000NsrFP, GM17, 5 µg/ml chloramphenicol, 0.3 nM nisin, 30 °C, 5 h, optical density, at least 3 biological replicates with 3 technical replicates each
Method: as §1, §2

[4] = test system: L. lactis NZ9000Cm; experiment: Growth curve, empty-plasmid strain; type: cell-based, Lactococcus lactis; conditions: 1 µM bacitracin + 1 mM ZnCl2 or 4 µM bacitracin without zinc; 0.3 nM nisin; monitored over 500 min, 30 °C
Text: (§3) To investigate whether SaNsrFP confers resistance against bacitracin and Zn-bacitracin, binding to the lipid carrier UPP[20],[52], we analyzed the influence of the expression of the sansrfp gene. The sensitive L. lactis strain NZ9000, served as an indicator strain for these studies which was transformed with a plasmid encoding the nsrfp gene. We included two controls where the strains were transformed with (I) an empty plasmid (L. lactis NZ9000Cm) (II) a plasmid containing a variant of the nsrfp gene (L. lactis NZ9000SaNsrFH202AP)[34]. This NZ9000SaNsrFH202AP strain is used since the transporter carries a mutation in the H-loop, a highly conserved region of ABC transporters, and as a result is not able to hydrolyze ATP[47]. […] The growth of L. lactis NZ9000Cm, L. lactis NZ9000SaNsrFP, L. lactis NZ9000SaNsrFH202AP and L. lactis NZ9000NisT was monitored online over a time period of 500 min (Fig. 2a,b). After adding the different antibiotics to the culture, the growth curve was determined. […]
(§4) To detect the growth behavior of the different strains, precultures of L. lactis NZ9000Cm, L. lactis NZ9000SaNsrFP and L. lactis NZ9000SaNsrFH202AP cells were grown in GM17 medium with 5 or 10 µg/ml chloramphenicol and 0.3 nM nisin at 30 °C overnight. […] Growth was detected at OD584 every 10 min with a FLUOstar OPTIMA (BMG Lab technology).

[5] = test system: L. lactis NZ9000SaNsrFP; experiment: Growth curve, SaNsrFP-producing strain; type: cell-based, Lactococcus lactis; conditions: 1 µM bacitracin + 1 mM ZnCl2 or 4 µM bacitracin without zinc; 0.3 nM nisin; compared with untreated control strain
Text: as §3, §4

[6] = test system: L. lactis NZ9000SaNsrFH202AP; experiment: Growth curve, ATP-hydrolysis deficient mutant strain; type: cell-based, Lactococcus lactis; conditions: 4 µM bacitracin without ZnCl2; 0.3 nM nisin; monitored over 500 min
Text: as §3, §4

[7] = test system: L. lactis NZ9000NisT; experiment: Growth curve, NisT-producing strain; type: cell-based, Lactococcus lactis; conditions: 1 µM bacitracin + 1 mM ZnCl2 or 4 µM bacitracin without zinc; 0.3 nM nisin; monitored over 500 min, 30 °C
Text: as §3, §4

[8] = test system: L. lactis NZ9000Cm; experiment: Cytoplasmic PGN precursor accumulation (HPLC/MS), empty-plasmid strain; type: cell-based, Lactococcus lactis; conditions: bacitracin 100 µg/ml added at OD600 1.2, 30 min at 30 °C, repeated once; HPLC/MS EIC 1148.4 and 1263.4
Method: (§5) Cells were grown in M17 medium supplemented with 0.5% glucose and 0.3 nM nisin overnight at 30 °C without shaking. The next day, 100 ml with 0.5% glucose and 0.3 nM nisin was inoculated with overnight cultures to OD600 = 0.1. When OD600 = 1.2 bacitracin (100 µg/ml) was added to the cultures to enrich cell wall precursors, and the cultures were incubated for an additional 30 min at 30 °C. This step was repeated once. (As a control, a second culture each was harvested before bacitracin was added at an OD600 = 1.2, and cell pellets were stored at − 20 °C) After incubation with bacitracin, the cells were harvested, and the cell pellets were stored at − 20 °C. The next day, the cell pellets were resuspended in 25 ml water and cooked for 60 min in boiling water to break the cells. Cell debris was removed by centrifugation (15 min, 500×g, 4 °C). […]
(§6) Five microliters of each sample were injected into an XCT6330 LC/MSD ultratrap system (Agilent Technologies) equipped with a Nucleosil 100 C18 column (3 μm × 100 mm × 2 mm internal diameter, Dr. Maisch GmbH). […] Extracted ion chromatograms (EICs) in negative ion mode for UDP-MurNAc-L-Ala-D-iGlu-L-Lys-D-Ala-D-Ala (m/z^−1 1148.34 ± 0.1) and UDP-MurNAc-L-Ala-D-iGlu-L-Lys-(D-Asp)-D-Ala-D-Ala (m/z^−1 1263.37 ± 0.1) were analyzed with Data Analysis (Bruker), exported and presented with GraphPad Prism 6.0.

[9] = test system: L. lactis NZ9000SaNsrFP; experiment: Cytoplasmic PGN precursor accumulation (HPLC/MS), SaNsrFP-producing strain; type: cell-based, Lactococcus lactis; conditions: bacitracin 100 µg/ml added at OD600 1.2, 30 min at 30 °C, repeated once; HPLC/MS EIC 1148.4 and 1263.4
Method: as §5, §6

[10] = test system: L. lactis NZ9000SaNsrFH202AP; experiment: Cytoplasmic PGN precursor accumulation (HPLC/MS), ATP-hydrolysis deficient mutant strain; type: cell-based, Lactococcus lactis; conditions: bacitracin 100 µg/ml added at OD600 1.2, 30 min at 30 °C, repeated once; compared with NZ9000Cm
Method: as §5, §6

[11] = test system: L. lactis NZ9000NisT; conditions: for Fold of resistance L. lactis NZ9000NisT: IC50 of NZ9000NisT relative to NZ9000Cm; for IC50: read-out: IC50 (nM) L. lactis NZ9000NisT, GM17, 5 µg/ml chloramphenicol, 0.3 nM nisin, 30 °C, 5 h, optical density
[12] = test system: L. lactis NZ9000NsrFP; conditions: fold changes described earlier for SaNsrFP; ref 34 (Reiners et al.); cited from earlier work
Text: No significant differences were detected between NZ9000NsrFP and NZ9000NsrFH202AP with ramoplanin. […] IC50 values decreased to similar levels in L. lactis NZ9000SaNsrFH202AP (one, two ...

[13] = test system: SaNSRS236A; parameters: method as in earlier work; conditions: low-level resistance; ref 32 (Khosa et al.); cited from earlier work

Row | Compound | IC50 [1] [nM] | Fold of resistance L. lactis NZ9000NsrFH202AP [2] [fold] | IC50 [2] [nM] | Fold of resistance L. lactis NZ9000NsrFP [3] [fold] | Fold of resistance L. lactis NZ9000NsrFP ([3]; listed as bacitracin) [fold] | IC50 [3] [nM] | Growth behaviour of L. lactis NZ9000Cm [4] | Growth behaviour of L. lactis NZ9000SaNsrFP [5] | Growth behaviour of L. lactis NZ9000SaNsrFH202AP [6] | Growth behaviour of L. lactis NZ9000NisT [7] | PGN precursor accumulation in the cytoplasm, L. lactis NZ9000Cm [8] | PGN precursor accumulation in the cytoplasm, L. lactis NZ9000SaNsrFP [9] | PGN precursor accumulation in the cytoplasm, L. lactis NZ9000SaNsrFH202AP [10] | Fold of resistance L. lactis NZ9000NisT [11] [fold] | IC50 [11] [nM] | Fold of resistance conferred by SaNsrFP [12] [fold] | Resistance against nisin, inactive protease variant SaNSRS236A [13] [fold]
1 | CC[C@H](C)[C@H](N)C1=N[C@H](C(=O)N[C@@H](CC(C)C)C(=O)N[C@H](CCC(=O)O)C(=O)N[C@H](C(=O)N[C@H]2CCCCNC(=O)[C@H](CC(N)=O)NC(=O)[C@@H](CC(=O)O)NC(=O)[C@H](Cc3cnc[nH]3)NC(=O)[C@@H](Cc3ccccc3)NC(=O)[C@H]([C@@H](C)CC)NC(=O)[C@@H](CCCN)NC2=O)[C@@H](C)CC)CS1 [Bacitracin, bacitracin] ({Ileψ(thiazoline)Cys}-L[dE]IK[dOrn]I[dF]H[dD]N; lactam 4-C (inferred); N-terminus assumed) | 938 ± 94 | 13 | 12900 | 349 ± 65 | 350 | 328000 | Severe growth inhibition | did not show reduced growth | reduced growth | Severe growth inhibition | presence of the characteristic PGN precursors | no accumulation of the PGN precursors | reduced PGN precursor accumulation | 1 ± 0 | 733 |  | 
2 | CN[C@H](CC(C)C)C(=O)N[C@H]1C(=O)N[C@@H](CC(N)=O)C(=O)N[C@H]2C(=O)N[C@H]3C(=O)N[C@H](C(=O)N[C@H](C(=O)O)c4cc(O)cc(O)c4-c4cc3ccc4O)[C@H](O)c3ccc(c(Cl)c3)Oc3cc2cc(c3O[C@@H]2O[C@H](CO)[C@@H](O)[C@H](O)[C@H]2O[C@H]2C[C@](C)(N)[C@H](O)[C@H](C)O2)Oc2ccc(cc2Cl)[C@H]1O [Vancomycin, vancomycin] | 214 | 2 ± 1 | 325 ± 117 | 5 ± 1 |  | 1080 ± 264 |  |  |  |  |  |  |  | 1 ± 0 | 133 ± 9 |  | 
3 | gallidermin |  |  |  |  |  |  |  |  |  |  |  |  |  |  |  | 12 | 
4 | lysobactin | 30.7 | 3 ± 2 | 102 ± 52.2 | 6 ± 1 |  | 182 ± 37 |  |  |  |  |  |  |  | 1 ± 0 | 25 ± 3 |  | 
5 | nisin |  |  |  |  |  |  |  |  |  |  |  |  |  |  |  | 16 | 2.6
6 | ramoplanin A2 | 73 ± 18 | 1 ± 0 | 92 ± 21 | 2 ± 1 |  | 121 ± 34 |  |  |  |  |  |  |  | 1.3 ± 0 | 95 |  | 
